pIC50: −log10 of the molar value. Numbered stars: 1 amine (or outer) side, 2 acyl side, 3 side chain; on linkers, the order of the positions; unused ones are H or OH. Bridge positions count the residues as written; N and C are the ends. Square brackets hold non-standard residues; d marks the D form. Peptide text beside a SMILES is read from it. ξ: configuration not given here. X1 = C#CCCC[C@H](O[*:2])C(C)(C)C(=O)[*:1]; Hmp(2R,3S) = CC[C@H](C)[C@@H](O)C(=O)O; NMeF = CN[C@@H](Cc1ccccc1)C(=O)O; ξNMeF = CNC(Cc1ccccc1)C(=O)O; NMeV = CN[C@H](C(=O)O)C(C)C; Hiv = CC(C)[C@H](O)C(=O)O; ξNMeV = CNC(C(=O)O)C(C)C; ξP = O=C(O)C1CCCN1
Tests used:
[1] = system: Leishmania donovani; assay: Antileishmanial activity against Leishmania donovani WR2801 axenic amastigotes after 6 days by XTT assay; type: functional, organism-based; conditions: WR2801, 144 h
[2] = system: Trypanosoma cruzi; assay: Antitrypanosomal activity against transgenic beta-galactosidase-expressing Trypanosoma cruzi Tulahuen clone C4 ATCC PRA33 assessed as growth inhibition at 10 ug/ml after 4 days relative to control; type: functional; conditions: Tulahuen clone C4 ATCC PRA33, 96 h, read-out: GI
[3] = system: Plasmodium falciparum; assay: Antimalarial activity against chloroquine-resistant Plasmodium falciparum W2 infected in human type A positive erythrocytes by [3H]-hypoxanthine incorporation assay; type: functional, organism-based
[4] = system: NCI-H460; assay: Cytotoxicity against human H460 cells at 30 uM after 48 hrs by MTT assay; type: cell-based; conditions: nci-h460, 48 h

With C#CCCC[C@@H]1OC(=O)[C@H](C)NC(=O)[C@H](Cc2ccc(OC)cc2)N(C)C(=O)[C@@H]2CCCN2C(=O)[C@H](Cc2ccccc2)N(C)C(=O)[C@H](C(C)C)NC(=O)C1(C)C the pIC50 [1] was less than 5.00, the inhibition of growth at 10 µg/mL [2] was 7% and the pIC50 [3] was 5.10. For the same molecule, the Activity [4] was “Non-Toxic”.
C#CCCC[C@H]1OC(=O)CNC(=O)[C@@H](Cc2ccccc2)N(C)C(=O)[C@@H]2CCCN2C(=O)[C@H]([C@@H](C)CC)N(C)C(=O)[C@H](C)NC(=O)[C@H](C)OC(=O)C1(C)C gave a pIC50 [1] of less than 5.00, an inhibition of growth at 10 µg/mL [2] of 12% and a pIC50 [3] of 5.44. The Activity [4] was “Non-Toxic”.
C#CCCC[C@@H]1OC(=O)CNC(=O)[C@H](Cc2ccccc2)N(C)C(=O)[C@@H]2CCCN2C(=O)[C@@H]([C@@H](C)CC)OC(=O)[C@H](C(C)C)N(C)C(=O)[C@H](C(C)C)NC(=O)C1(C)C (V[NMeV][Hmp(2R,3S)]P[NMeF]G; linker N-C via X1) was tested, and the pIC50 [1] was 5.59, the inhibition of growth at 10 µg/mL [2] was 60% and the pIC50 [3] was 5.46. For the same molecule, the Activity [4] was “Non-Toxic”.
For C#CCCC[C@@H]1OC(=O)CNC(=O)C(Cc2ccccc2)N(C)C(=O)C2CCCN2C(=O)[C@H](C(C)C)OC(=O)C(C(C)C)N(C)C(=O)[C@H](C(C)C)NC(=O)C1(C)C (some centres undefined) (V[ξNMeV][Hiv][ξP][ξNMeF]G; linker N-C via X1), the pIC50 [3] was 5.00 and the Activity [4] was “Non-Toxic”.
